Earlier results on one molecule are cited in patent publication US9895311B2, “Foam-forming compositions and methods for delivering an active to a body cavity” (Pharmiva AB, priority 2014, dated 2018).

SMILES strings stand for the structures.

Data set [1] relates to anaerobic bacteria involved in vaginal and urinary tube infections. The conditions noted are these: in 7 seconds, laboratory conditions (Block 1983).
A further data set relates to several species. The following applies: even at low pH (Attassi, Servin 2010).

Take `OO` [hydrogen peroxide]: in data set [1], the log reduction was 2 log. Also, in the data set with several species, the “Concentration required for inhibition” value is given as at least 20 mM.
